Laboratory results published in US7279304B2, “Methods for preparation of macrocyclic molecules and macrocyclic molecules prepared thereby” (President and Fellows of Harvard College, priority 2000, dated 2007).
Where two headings read alike, the source gives them in different places. Where a SMILES comes first, the peptide text is derived from it. [ ]: non-standard residue; d: D form. The star is where a group is joined. ξ: configuration not given here. Butanoyl(3R-OH) = C[C@@H](O)CC(=O)*; dPhLac = O=C(O)[C@H](O)Cc1ccccc1; dOrn = NCCC[C@@H](N)C(=O)O; Hiv = CC(C)[C@H](O)C(=O)O; SCH2CH2NHAc = CC(=O)NCCS*; Orn = NCCC[C@H](N)C(=O)O; ξP = O=C(O)C1CCCN1

Columns and labels:
[1] = target: T1, TycC TE (excised TE domain protein from the tyrocidine NRPS) (Brevibacillus parabrevis, UniProt O30409); format: biochemical; settings: for cyclization rate compared with the substrate in Example 3: data not shown; for kcat / Km: Table 1, macrocyclization of peptide-SNAC substrate, 25 mM MOPS, pH 7.0; for thioester hydrolysis by TycC TE (result in words): kinetic parameters similar to the wild-type substrate (Ex. 3)
T1 construct: excised TE domain protein from the tyrocidine NRPS (TycC TE); made in house
T1 sequence (O30409 6238-6486): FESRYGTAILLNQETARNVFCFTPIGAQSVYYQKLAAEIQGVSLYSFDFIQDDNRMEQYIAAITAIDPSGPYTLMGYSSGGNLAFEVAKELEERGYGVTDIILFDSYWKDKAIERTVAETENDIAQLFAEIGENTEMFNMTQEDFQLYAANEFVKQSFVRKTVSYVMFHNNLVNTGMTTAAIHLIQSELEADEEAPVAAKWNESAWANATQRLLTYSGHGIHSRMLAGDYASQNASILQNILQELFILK
Method: Macrocyclization reactions were carried out in 25 mM MOPS, pH 7.0 in a total volume of 400 μL. Reactions were initiated by addition of TycC TE and quenched at various time points by the addition of 25 μL 1.7% TFA/water, flash frozen in liquid nitrogen and stored at −80° C. (for Ex. 13, reactions were quenched by the addition of sodium phosphate, pH 5.3, to 100 mM). The reactions were then thawed, 85 μL acetonitrile added, and analyzed by analytical HPLC with monitoring at 220 nm (20% to 80% acetonitrile in 0.1% TFA/water, or in 25 mM potassium phosphate, pH 5.3 for Ex. 13, over 35 minutes, Vydac protein and peptide C18 column). Initial rates were calculated using 1 minute time points. Peptide-SNAC and reaction product concentrations were determined for all Tyr-containing peptides based on the estimated extinction coefficient ε (280 nm)=1,280 M^−1 cm^−1, which agrees with the experimentally determined ε (280 nm) of Ex. 1. For peptide-SNACs not containing Tyr, ε (220 nm) was determined experimentally, and concentrations of corresponding cyclic products determined by assuming equal ε (220 nm) values for the peptide-SNAC and cyclic product.

[2] = target: T2, excised TE domain protein from the surfactin synthetase (Bacillus subtilis, UniProt Q08787); test: Cyclization of thioester substrate to macrolactone by excised surfactin synthetase TE domain; format: biochemical
T2 construct: the excised TE domain protein from the surfactin synthetase protein system; made in house
T2 sequence (Q08787 1059-1271): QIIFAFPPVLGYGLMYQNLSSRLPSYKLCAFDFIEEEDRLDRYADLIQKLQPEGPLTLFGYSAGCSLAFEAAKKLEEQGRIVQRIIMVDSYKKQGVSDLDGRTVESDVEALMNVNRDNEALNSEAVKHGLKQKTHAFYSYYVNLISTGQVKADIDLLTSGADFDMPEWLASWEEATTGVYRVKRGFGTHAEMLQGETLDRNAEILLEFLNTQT
Text: In accord with the present invention, other linear substrate molecules can be cyclized by other excised TE domain proteins besides the TE domain protein excised from the tyrocidine NRPS. […] The excised surfactin TE domain protein selectively cyclizes substrates with the (R)-hydroxybutanamide nucleophile versus substrates with the (S)-hydroxybutamide nucleophile.
The observed specificity of the surfactin TE domain supports that TE domains can cyclize a variety of substrates provided that certain key recognition elements that are generally near the parts of the molecule that are joined in the cyclization reaction are present. For example, substrate 27 contains a change in the sequence of the heptapeptide compared to the wild-type surfactin sequence (D-Leu3 is changed to D-Orn), but this substrate is nevertheless cyclized by the excised TE domain from surfactin synthetase. When the (R)-hydroxybutanamide nucleophile in compound 27 was changed to a (S)-hydroxybutanamide nucleophile (a change near the parts of the molecule joined by the cylization reaction), cyclization activity was abolished.

How did the “cyclization rate compared with the substrate in Example 3” value [1] turn out when CC(=O)NCCSC(=O)[C@H](CC(C)C)NC(=O)[C@H](CCCN)NC(=O)[C@@H](OC(=O)[C@H](Cc1ccc(O)cc1)NC(=O)[C@H](CCC(N)=O)NC(=O)[C@H](CC(N)=O)NC(=O)[C@@H](Cc1ccccc1)NC(=O)[C@H](Cc1ccccc1)NC(=O)C1CCCN1C(=O)[C@H](N)Cc1ccccc1)C(C)C (stereo partly drawn) [compound 23] (H-[dF][ξP]F[dF]NQY[Hiv][Orn]L-SCH2CH2NHAc) was run?
The value was “similar”.

“D-Ala-Pro-Phe-D-Phe-Asn-Gln-Tyr-Val-Orn-Leu-SNAC [Example 5]” was tested. Which “cyclization by TycC TE domain (result in words)” value (“cyclization by TycC TE domain” below) [1] did it give?
The value was “arrests cyclization activity”.

What about the kcat [1] of the same molecule?
Its kcat is 0.

What about the “thioester hydrolysis by TycC TE (result in words)” value [1] of the same molecule?
The value was “observed”.

For CC(=O)NCCSC(=O)[C@H](CC(C)C)NC(=O)[C@H](CCCN)NC(=O)[C@@H](NC(=O)[C@H](Cc1ccc(O)cc1)NC(=O)[C@H](CCC(N)=O)NC(=O)[C@H](CC(N)=O)NC(=O)[C@@H](Cc1ccccc1)NC(=O)[C@H](Cc1ccccc1)NC(=O)[C@@H]1CCCN1C(=O)[C@H](N)Cc1ccccc1)C(C)C [Example 3, D-Phe-Pro-Phe-D-Phe-Asn-Gln-Tyr-Val-Orn-Leu-SNAC] (H-[dF]PF[dF]NQYV[Orn]L-SCH2CH2NHAc), which Km [1] is on record?
The Km was 3 µM.

CC(=O)NCCSC(=O)[C@H](CC(C)C)NC(=O)[C@H](CCCN)NC(=O)[C@@H](NC(=O)[C@H](Cc1ccc(O)cc1)NC(=O)[C@H](CCC(N)=O)NC(=O)[C@H](CC(N)=O)NC(=O)[C@@H](Cc1ccccc1)OC(=O)[C@H](Cc1ccccc1)NC(=O)C1CCCN1C(=O)[C@H](N)Cc1ccccc1)C(C)C (stereo partly drawn) [compound 22] (H-[dF][ξP]F[dPhLac]NQYV[Orn]L-SCH2CH2NHAc) was tested. Which “cyclization rate compared with the substrate in Example 3” value [1] did it give?
The value was “similar”.

How did the kcat [1] turn out when “D-Phe-Pro-Val-Orn-Leu-D-Phe-Pro-Val-Orn-Leu-SNAC [Example 17]” was run?
Its kcat is 12.

What about the Km ([1]; read-out: KM) of the same molecule?
Its Km is 5 µM.

What about the “KM as compared to Ex. 3” value ([1]; cyclization) of the same molecule?
Its value is “comparable”.

And the “reduction in kcat relative to wild-type substrate (Ex. 3)” value ([1]; cyclization)?
The value was 5 fold.

How did the “chain dimerization and subsequent cyclization to gramicidin S” value ([1]; incubation of pentapeptide-SNAC with TycC TE) turn out when “D-Phe-Pro-Val-Orn-Leu-SNAC [pentapeptide-SNAC]” was run?
Its value is “efficient chain dimerization and subsequent cyclization occurred”.

CC(=O)NCCSC(=O)[C@H](CC(C)C)NC(=O)[C@H](CCCN)NC(=O)[C@@H](NC(=O)[C@H](Cc1ccc(O)cc1)NC(=O)[C@H](CCC(N)=O)NC(=O)[C@H](CC(N)=O)NC(=O)[C@@H](Cc1ccccc1)NC(=O)[C@H](Cc1ccccc1)NC(=O)C1CCCN1C(=O)[C@H](O)Cc1ccccc1)C(C)C (stereo partly drawn) [compound 24] (H-[dPhLac][ξP]F[dF]NQYV[Orn]L-SCH2CH2NHAc) was tested. Which “cyclization by TycC TE domain” value [1] did it give?
The value was “macrocyclized”.

Which “cyclization to macrolactone by excised surfactin TE domain” value [2] does the source give for CC(=O)NCCSC(=O)[C@H](CC(C)C)NC(=O)[C@@H](CC(C)C)NC(=O)[C@H](CC(=O)O)NC(=O)[C@@H](NC(=O)[C@@H](CCCN)NC(=O)[C@H](CC(C)C)NC(=O)[C@H](CCC(=O)O)NC(=O)C[C@@H](C)O)C(C)C [compound 27] ({Butanoyl(3R-OH)}-EL[dOrn]VD[dL]L-SCH2CH2NHAc) here?
Its value is “efficiently cyclized”.

Which “cyclization by TycC TE domain” value [1] does the source give for “Phe-Pro-Phe-D-Phe-Asn-Gln-Tyr-Val-Orn-Leu-SNAC [Example 4]” here?
The value was “arrests cyclization activity”.

What about the kcat [1] of the same molecule?
The kcat was 0.

What about the “thioester hydrolysis by TycC TE (result in words)” value [1] of the same molecule?
The value was “observed”.
